Key:
[1] = target: T1, rOT7T022L (Rattus norvegicus, UniProt Q9EP86); experiment: Site sensor (Cytosensor) acidification rate in rOT7T022L receptor-expressing CHO cells; assay type: cell-based; settings: peptide exposed to cells for 7 minutes and 2 seconds; FIG. 8
T1 construct: expressed in transfected cells
Procedure: The rOT7T022L receptor-expressing CHO cells obtained in Example 7 (2) above were inoculated on capsules for site sensor in 2.7×10^5 cells/capsule. After incubation overnight, the site sensor was mounted to a workstation for the site sensor. A medium for assay (low buffered RMP11640 medium supplemented with 0.1% bovine serum albumin), which was set in the flow path of the site sensor, was supplied to the cells in a pump cycle of ON (80 seconds) and OFF (40 seconds). A rate of change in […] from 8 to 30 seconds after the pump stopped was calculated as an acidification rate. A change of the acidification rate with passage of time was monitored; when stable reading was obtained, the flow path was switched to expose each peptide to the cells for 7 minutes and 2 seconds. In the acidification rate of each well, the data for 3 cycles immediately before the peptide exposure was made 100% for standardization.

[2] = target: T2, Human 0T7T022 receptor (Homo sapiens, UniProt Q9GZQ6); experiment: Effect of pertussis toxin on cAMP production inhibiting activity in human 0T7T022 receptor-expressing CHO cells; assay type: cell-based; settings: 0.1 μM peptide, 1 μM forskolin, 100 ng/ml pertussis toxin overnight; FIG. 15
T2 construct: expressed in transfected cells; host or cells: CHO cells
T2 sequence (Q9GZQ6 whole entry): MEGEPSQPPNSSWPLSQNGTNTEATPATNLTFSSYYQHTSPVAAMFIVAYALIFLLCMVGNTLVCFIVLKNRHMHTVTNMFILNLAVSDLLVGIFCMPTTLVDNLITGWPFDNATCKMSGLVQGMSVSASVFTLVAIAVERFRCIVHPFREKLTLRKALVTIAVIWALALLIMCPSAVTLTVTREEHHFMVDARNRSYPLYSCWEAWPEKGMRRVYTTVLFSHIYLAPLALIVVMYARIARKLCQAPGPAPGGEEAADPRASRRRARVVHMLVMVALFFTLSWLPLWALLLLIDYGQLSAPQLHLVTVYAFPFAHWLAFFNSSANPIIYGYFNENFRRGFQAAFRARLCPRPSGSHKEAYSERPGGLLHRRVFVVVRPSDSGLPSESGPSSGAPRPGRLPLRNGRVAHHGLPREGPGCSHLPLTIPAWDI
Procedure: Human 0T7T022 receptor-expressing CHO cells obtained in Example 21 were inoculated on a 24-well plate in a concentration of 1×10^5 cells/well. After culturing overnight, the medium was exchanged by a medium added with 100 ng/ml pertussis toxin (Sigma, Inc.) or with a control medium followed by further incubation overnight. The cells were rinsed with Hanks' buffer (HBSS) supplemented with 0.05% BSA and 0.2 mM IBMX and then preincubated at 37° C. for 30 minutes in the same buffer. Next, the cells were incubated at 37° C. for 30 minutes after the buffer was exchanged by Hanks' buffer alone (HBSS) supplemented with 0.05% BSA and 0.2 mM IBMX (black column), or by HBSS further added with 1 μM forskolin only (white column), or by HBSS added with 1 μM forskolin and 0.1 μM RFRP-1-12 (peptide having the 81 (Met) to 92 (Phe) amino acid sequence in SEQ ID NO: 1) (hatched column). After completion of the incubation, cAMP in the cells of each well was extracted and quantified according to the method of cAMP EIA Kit (Amersham, Inc.).

[3] = system: pituitary hormone level in plasma; experiment: Pituitary hormone level in plasma after administration into the third ventricle; assay type: in vivo, Wistar rats; settings: for plasma prolactin level: vs PBS control
Procedure: The effect of the peptide shown by SEQ ID NO: 39 administered into the third ventricle on pituitary hormone level in plasma, was explored. Mature male Wistar rats (body weights at operation: about 290-350 g) were anesthetized with 50 mg/kg of pentobarbital, i.p., and each rat was immobilized in a rat brain stereotaxic apparatus. The incisor bar was set 3.3 mm lower from the interaural line. The skull was exposed, and using a dental drill a hole was made on the bone for implantation of a guide cannula.
In addition, an anchor screw was buried in one position around the hole. A stainless-steel guide cannula, AG-12 (0.4 mm inner diameter, 0.5 mm outer diameter, EICOM Co., Ltd.), was inserted in such a manner that its tip would be situated in the upper part of the third ventricle. Following the atlas of Paxinos and Watson (1986), the stereotaxic coordinates were set to AP: +7.2 mm (from the interaural line), L: 0.0 mm, and H: +2.0 mm (from the interaural line). The guide cannula was secured to the skull using instant adhesive, dental cement and an anchor screw. A stainless-steel dummy cannula, AD-12 (0.35 mm outer diameter, EICOM Co., Ltd.), was then passed through the guide cannula and locked in position with a cap nut (EICOM Co., Ltd.). After the operation the rats were housed in individual cages and kept for at least a week for postoperative recuperation before starting the experiment.
The operated rat was anesthetized with 50 mg/kg of pentobarbital, i.p., and immobilized in the dorsal position on a necropsy pad. A catheter (SP35, Natsume Seisakusho Co., Ltd.) was inserted into the right jugular vein. On the following day, 400 μl of blood was drawn through the jugular vein catheter. To prevent clotting, a syringe was filled beforehand with 20 μl of saline containing 200 U/ml of heparin. The cap nut and dummy cannula were removed from the rat skull and instead, a stainless steel microinjection cannula AMI13 (0.17 mm inner diameter, 0.35 mm outer diameter, EICOM Co., Ltd.) connected to a Teflon tube (50 cm long, 0.1 mm inner diameter, 0.4 mm outer diameter, EICOM Co., Ltd.) was inserted. The length of the microinjection cannula was adjusted beforehand so that its tip would be exposed from the guide cannula by 1 mm. One end of the Teflon tube was connected to a microsyringe pump and either PBS or the peptide shown by SEQ ID NO: 39 dissolved in PBS was injected, in a total volume of 10 μl, into the third ventricle at a flow rate of 5 μl/min. After a 1 minute standby time following the infusion, the microinjection cannula was disconnected and the dummy cannula was locked in position again with a cap nut. Immediately before the initiation of intraventricular administration and 10, 20, 30, 40, and 60 minutes after the initiation of administration, 400 μl aliquots of blood were collected via the cannula inserted into the jugular vein. Each blood sample collected was centrifuged (5,000 rpm, 10 min.) with a high-speed refrigerated microcentrifuge (MR-150, Tommy Seiko) and the supernatant (plasma) was recovered. The amount of prolactin in the plasma was determined by radioimmunoassay.
The results were shown in terms of a mean±S.E.M. To examine if there was a significant difference between the group administered with the peptide shown by SEQ ID NO: 39 dissolved in PBS and the control group administered with PBS alone, Student's t-test was used. According to the two-tailed test, the risk percentage of 5% or less was assumed to be statistically significant.

[4] = 10 nmols into the third ventricle

T1 sequence (Q9EP86 whole entry): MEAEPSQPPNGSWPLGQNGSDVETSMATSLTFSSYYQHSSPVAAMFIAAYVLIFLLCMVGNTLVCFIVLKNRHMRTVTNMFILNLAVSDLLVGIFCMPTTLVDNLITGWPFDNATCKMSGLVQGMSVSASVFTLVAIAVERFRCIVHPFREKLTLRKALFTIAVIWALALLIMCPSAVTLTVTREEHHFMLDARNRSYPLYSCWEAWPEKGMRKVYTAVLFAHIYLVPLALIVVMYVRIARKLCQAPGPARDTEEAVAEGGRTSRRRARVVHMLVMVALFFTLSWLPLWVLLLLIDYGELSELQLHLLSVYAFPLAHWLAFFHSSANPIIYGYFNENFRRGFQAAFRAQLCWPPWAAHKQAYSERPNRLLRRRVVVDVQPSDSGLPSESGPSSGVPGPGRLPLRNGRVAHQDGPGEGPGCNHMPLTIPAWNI

`CC(C)C[C@H](NC(=O)[C@H](CC(N)=O)NC(=O)[C@@H]1CCCN1C(=O)[C@@H](N)C(C)C)C(=O)N1CCC[C@H]1C(=O)N[C@@H](CCC(N)=O)C(=O)N[C@@H](CCCNC(=N)N)C(=O)N[C@@H](Cc1ccccc1)C(N)=O` was tested. Which “reaction of rOT7T022L-expressing CHO cells (acidification rate)” value [1] did it give?
The value was “strongly showed dose-dependent reaction”.

Which “reaction of rOT7T022L-expressing CHO cells (acidification rate)” value [1] does the source give for H-MPHSFANLPLRF-NH2 here?
Its value is “strongly showed dose-dependent reaction”.

What about the “cAMP production inhibiting activity in cells treated with pertussis toxin” value [2] of the same compound?
The value was “lost”.

And the “level of ACTH in plasma” value [3, 4]?
Its value is “none showed any significant change”.

And the “level of GH in plasma” value [3, 4]?
Its value is “none showed any significant change”.

And the “level of LH in plasma” value [3, 4]?
Its value is “none showed any significant change”.

And the “level of TSH in plasma” value [3, 4]?
Its value is “none showed any significant change”.

And the plasma prolactin level ([3]; 10 minutes after 10 nmols into the third ventricle)?
Its plasma prolactin level is “tended to increase”.

What about the plasma prolactin level ([3]; 20 minutes after 10 nmols into the third ventricle) of the same compound?
The plasma prolactin level was “significantly increased”.

And the plasma prolactin level ([3]; 30 minutes after 10 nmols into the third ventricle)?
The plasma prolactin level was “significantly increased”.

What about the plasma prolactin level ([3]; 40 minutes after 10 nmols into the third ventricle) of the same compound?
Its plasma prolactin level is “significantly increased”.

What about the plasma prolactin level ([3]; 60 minutes after 10 nmols into the third ventricle) of the same compound?
Its plasma prolactin level is “a significant difference was noted”.

— patent US7662574B2, “Use of a G protein-coupled receptor and its cognizant ligand in the identification of compounds that affect prolactin secretion” (Takeda Pharmaceutical Company Limited, priority 1999, dated 2010)
